From publication PMC5724930 (Biochemistry, 2017)

Columns and labels:
PanZ [1] = target: T1, PanZ (Escherichia coli, UniProt P37613, R73A); assay: ITC; format: binding
T1 construct: PanZ(R73A)

PanZ [2] = target: T2, PanZ (Escherichia coli, UniProt P37613); assay: ITC; also […] Å crystal structure of the PanD–PanZ·AcCoA complex; format: binding
T2 construct: PanZ(WT)
T2 sequence (P37613 whole entry): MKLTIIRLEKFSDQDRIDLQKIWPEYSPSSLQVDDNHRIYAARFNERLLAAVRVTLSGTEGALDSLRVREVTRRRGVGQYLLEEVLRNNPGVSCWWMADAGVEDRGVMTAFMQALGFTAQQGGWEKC

T1 sequence (P37613 whole entry R73A): as the sequence (P37613 whole entry) above, with R73A counted along it

`CC(=O)SCCNC(=O)CCNC(=O)[C@H](O)C(C)(C)COP(=O)(O)OP(=O)(O)OC[C@H]1O[C@@H](n2cnc3c(N)ncnc32)[C@H](O)[C@@H]1OP(=O)(O)O` [AcCoA] gave a Kd (PanZ [1]) of 220 ± 30 µM and a Kd (PanZ [2]) of 0.524 ± 0.064 µM.
